Assays:
GLP-1R = GLP-1R (Homo sapiens, UniProt P43220); test: GLP-1R activation: cAMP increase in CHO cells stably expressing GLP-1R; assay type: cell-based; details: cAMP increase, CHO cells stably expressing GLP-1R, 10 point dose response, 30 minutes incubation; read-out: EC50
[1] = Microsomal stability, human liver microsomes (predicted hepatic clearance); details: predicted from in vitro microsomal stability data

GLP-1R, sequence (P43220 24-463): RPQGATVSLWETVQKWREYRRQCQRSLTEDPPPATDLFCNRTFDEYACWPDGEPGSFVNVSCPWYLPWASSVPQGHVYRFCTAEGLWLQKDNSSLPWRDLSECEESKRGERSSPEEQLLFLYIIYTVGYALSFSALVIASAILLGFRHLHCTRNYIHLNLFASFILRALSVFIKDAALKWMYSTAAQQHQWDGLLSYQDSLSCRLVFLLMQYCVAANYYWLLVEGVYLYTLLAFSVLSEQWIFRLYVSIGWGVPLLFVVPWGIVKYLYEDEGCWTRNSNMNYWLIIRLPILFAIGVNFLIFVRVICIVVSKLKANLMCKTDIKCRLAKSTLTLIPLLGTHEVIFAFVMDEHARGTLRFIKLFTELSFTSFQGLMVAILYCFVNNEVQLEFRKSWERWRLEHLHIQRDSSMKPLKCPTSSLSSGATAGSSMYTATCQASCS

SMILES | EC50 (GLP-1R) | Predicted Hepatic Clearance (Pred. Cl.) [1]
COCCn1c(Cc2ccc(-c3cccc(OCc4ccc(F)cc4)n3)cc2F)nc2ccc(C(=O)O)cc21 [Example 256, 2-(2-fluoro-4-(6-((4-fluorobenzyl)oxy)pyridin-2-yl)benzyl)-1-(2-methoxyethyl)-1H-benzo[d]imidazole-6-carboxylic acid] | 30.6 nM | 5.33 mL/min/kg
COCCn1c(Cc2ccc(-c3cccc(OCc4ccc(C#N)cc4F)n3)c(N)c2)nc2ccc(C(=O)O)cc21 [Example 259, 2-(3-amino-4-(6-((4-cyano-2-fluorobenzyl)oxy)pyridin-2-yl)benzyl)-1-(2-methoxyethyl)-1H-benzo[d]imidazole-6-carboxylic acid] | 66.9 nM | 3.3 mL/min/kg
COCCn1c(Cc2ccc(-c3cccc(OCc4cc(F)c(C#N)cc4F)n3)cc2F)nc2ccc(C(=O)O)cc21 [Example 262, 2-(4-(6-((4-cyano-2,5-difluorobenzyl)oxy)pyridin-2-yl)-2-fluorobenzyl)-1-(2-methoxyethyl)-1H-benzo[d]imidazole-6-carboxylic acid] | 28.6 nM | <1.83 mL/min/kg
CC1(C)CC(Cn2c(Cc3ccc(-c4cccc(OCc5ccc(C#N)cc5F)n4)cc3F)nc3ccc(C(=O)O)cc32)O1 (stereo not drawn) [Example 263, 2-(4-(6-((4-cyano-2-fluorobenzyl)oxy)pyridin-2-yl)-2-fluorobenzyl)-1-((4,4-dimethyloxetan-2-yl)methyl)-1H-benzo[d]imidazole-6-carboxylic acid] | 91.7 nM | 7 mL/min/kg
COCCn1c(Cc2ccc(-c3cccc(OCc4ccc(C5(C#N)CC5)cc4)n3)cc2F)nc2ccc(C(=O)O)cc21 [Example 266, 2-(4-(6-((4-(1-cyanocyclopropyl)benzyl)oxy)pyridin-2-yl)-2-fluorobenzyl)-1-(2-methoxyethyl)-1H-benzo[d]imidazole-6-carboxylic acid] | 51.4 nM | 6.17 mL/min/kg
COCCn1c(Cc2ccc(-c3cccc(OCc4ccc(Cl)cc4OCC(F)(F)F)n3)cc2F)nc2ccc(C(=O)O)cc21 [Example 267, 2-(4-(6-((4-chloro-2-(2,2,2-trifluoroethoxy)benzyl)oxy)pyridin-2-yl)-2-fluorobenzyl)-1-(2-methoxyethyl)-1H-benzo[d]imidazole-6-carboxylic acid] | 172 nM | 4.58 mL/min/kg
N#Cc1ccc(COc2cccc(-c3cc(F)c(Cc4nc5ccc(C(=O)O)cc5n4Cc4ncccn4)cc3F)n2)c(F)c1 [Example 269, 2-(4-(6-((4-cyano-2-fluorobenzyl)oxy)pyridin-2-yl)-2,5-difluorobenzyl)-1-(pyrimidin-2-ylmethyl)-1H-benzo[d]imidazole-6-carboxylic acid] | 51.7 nM | 5.83 mL/min/kg
N#Cc1ccc(COc2cccc(-c3cc(F)c(Cc4nc5ccc(C(=O)O)cc5n4CC4(F)COC4)cc3F)n2)c(F)c1 [Example 270, 2-(4-(6-((4-cyano-2-fluorobenzyl)oxy)pyridin-2-yl)-2,5-difluorobenzyl)-1-((3-fluorooxetan-3-yl)methyl)-1H-benzo[d]imidazole-6-carboxylic acid] | 1.82 nM | 4.5 mL/min/kg
N#Cc1ccc(COc2cccc(-c3cc(F)c(Cc4nc5ccc(C(=O)O)cc5n4CC4(n5cncn5)CC4)cc3F)n2)c(F)c1 [Example 274, 1-((1-(1H-1,2,4-triazol-1-yl)cyclopropyl)methyl)-2-(4-(6-((4-cyano-2-fluorobenzyl)oxy)pyridin-2-yl)-2,5-difluorobenzyl)-1H-benzo[d]imidazole-6-carboxylic acid] | 0.23 nM | 8 mL/min/kg
N#Cc1ccc(COc2cccc(-c3ccc(Cc4nc5c(F)cc(C(=O)O)cc5n4CC4(CF)CC4)cc3F)n2)c(F)c1 [Example 276, 2-(4-(6-((4-cyano-2-fluorobenzyl)oxy)pyridin-2-yl)-3-fluorobenzyl)-4-fluoro-1-((1-(fluoromethyl)cyclopropyl)methyl)-1H-benzo[d]imidazole-6-carboxylic acid] | 0.23 nM | 6.42 mL/min/kg
N#Cc1ccc(COc2cccc(-c3ccc(Cc4nc5ccc(C(=O)O)nc5n4CC4(CF)CC4)cc3F)n2)c(F)c1 [Example 277, 2-(4-(6-((4-cyano-2-fluorobenzyl)oxy)pyridin-2-yl)-3-fluorobenzyl)-3-((1-(fluoromethyl)cyclopropyl)methyl)-3H-imidazo[4,5-b]pyridine-5-carboxylic acid] | 1.57 nM | 7.17 mL/min/kg
COCCn1c(Cc2cc(F)c(-c3ccnc(OCc4ccc(C#N)cc4F)n3)cc2F)nc2c(F)cc(C(=O)O)cc21 [Example 280, 2-(4-(2-((4-cyano-2-fluorobenzyl)oxy)pyrimidin-4-yl)-2,5-difluorobenzyl)-4-fluoro-1-(2-methoxyethyl)-1H-benzo[d]imidazole-6-carboxylic acid] | 0.62 nM | 4 mL/min/kg

Continued by falling EC50 (GLP-1R), values first:

EC50 (GLP-1R) | Predicted Hepatic Clearance (Pred. Cl.) [1] | SMILES
1640 nM | 3 mL/min/kg | CC(C)(O)[C@H](F)Cn1c(Cc2ccc(-c3cccc(OCc4ccc(C#N)cc4F)n3)cc2F)nc2ccc(C(=O)O)cc21 [Example 278, (R)-2-(4-(6-((4-cyano-2-fluorobenzyl)oxy)pyridin-2-yl)-2-fluorobenzyl)-1-(2-fluoro-3-hydroxy-3-methylbutyl)-1H-benzo[d]imidazole-6-carboxylic acid]
184 nM | 8 mL/min/kg | COCCn1c(Cc2ccc(-c3cccc(OCc4ccc(C#N)cc4F)n3)c(Br)c2)nc2ccc(C(=O)O)cc21 [Example 261, 2-(3-bromo-4-(6-((4-cyano-2-fluorobenzyl)oxy)pyridin-2-yl)benzyl)-1-(2-methoxyethyl)-1H-benzo[d]imidazole-6-carboxylic acid]
113 nM | 10.8 mL/min/kg | COCCn1c(Cc2ccc(-c3cccc(OCc4ccc(C#N)cc4F)n3)cc2-c2cc[nH]n2)nc2ccc(C(=O)O)cc21 [Example 260, 2-(4-(6-((4-cyano-2-fluorobenzyl)oxy)pyridin-2-yl)-2-(1H-pyrazol-3-yl)benzyl)-1-(2-methoxyethyl)-1H-benzo[d]imidazole-6-carboxylic acid]
26.2 nM | 4 mL/min/kg | CC1(C)COC1Cn1c(Cc2ccc(-c3cccc(OCc4ccc(C#N)cc4F)n3)cc2F)nc2ccc(C(=O)O)cc21 (stereo not drawn) [Example 264, 2-(4-(6-((4-cyano-2-fluorobenzyl)oxy)pyridin-2-yl)-2-fluorobenzyl)-1-((3,3-dimethyloxetan-2-yl)methyl)-1H-benzo[d]imidazole-6-carboxylic acid]
15.7 nM | 3.67 mL/min/kg | N#CCC1(Cn2c(Cc3cc(F)c(-c4ccnc(OCc5ccc(C#N)cc5F)n4)cc3F)nc3c(F)cc(C(=O)O)cc32)CC1 [Example 268, 2-(4-(2-((4-cyano-2-fluorobenzyl)oxy)pyrimidin-4-yl)-2,5-difluorobenzyl)-1-((1-(cyanomethyl)cyclopropyl)methyl)-4-fluoro-1H-benzo[d]imidazole-6-carboxylic acid]
5.51 nM | 12.2 mL/min/kg | N#Cc1ccc(COc2cccc(-c3ccc(Cc4nc5ccc(C(=O)O)cc5n4CC4(c5ccncc5)CC4)c(F)c3)n2)c(F)c1 [Example 275, 2-(4-(6-((4-cyano-2-fluorobenzyl)oxy)pyridin-2-yl)-2-fluorobenzyl)-1-((1-(pyridin-4-yl)cyclopropyl)methyl)-1H-benzo[d]imidazole-6-carboxylic acid]
3.07 nM | 8.3 mL/min/kg | CC(C)(C#N)Cn1c(Cc2ccc(-c3cccc(OCc4ccc(C#N)cc4F)n3)c(F)c2)nc2ccc(C(=O)O)cc21 [Example 279, 2-(4-(6-((4-cyano-2-fluorobenzyl)oxy)pyridin-2-yl)-3-fluorobenzyl)-1-(2-cyano-2-methylpropyl)-1H-benzo[d]imidazole-6-carboxylic acid]
2.87 nM | <1.83 mL/min/kg | N#Cc1ccc(COc2cccc(-c3ccc(Cc4nc5ccc(C(=O)O)cc5n4CC4(n5ccnn5)CC4)c(F)c3)n2)c(F)c1 [Example 284, 1-((1-(1H-1,2,3-triazol-1-yl)cyclopropyl)methyl)-2-(4-(6-((4-cyano-2-fluorobenzyl)oxy)pyridin-2-yl)-2-fluorobenzyl)-1H-benzo[d]imidazole-6-carboxylic acid]
2.3 nM | 6.7 mL/min/kg | N#CCC1(Cn2c(Cc3ccc(-c4ccnc(OCc5ccc(C#N)cc5F)n4)c(F)c3)nc3ccc(C(=O)O)cc32)CC1 [Example 281, 2-(4-(2-((4-cyano-2-fluorobenzyl)oxy)pyrimidin-4-yl)-3-fluorobenzyl)-1-((1-(cyanomethyl)cyclopropyl)methyl)-1H-benzo[d]imidazole-6-carboxylic acid]
2.08 nM | 5.67 mL/min/kg | COCCn1c(Cc2ccc(-c3cccc(OCc4cccc5c4oc4ccccc45)n3)cc2F)nc2ccc(C(=O)O)cc21 [Example 265, 2-(4-(6-(dibenzo[b,d]furan-4-ylmethoxy)pyridin-2-yl)-2-fluorobenzyl)-1-(2-methoxyethyl)-1H-benzo[d]imidazole-6-carboxylic acid]
1.43 nM | 5.83 mL/min/kg | COCCn1c(Cc2ccc(-c3cccc(OCc4ccc(C#N)cc4F)n3)cc2C#CC2CC2)nc2ccc(C(=O)O)cc21 [Example 257, 2-(4-(6-((4-cyano-2-fluorobenzyl)oxy)pyridin-2-yl)-2-(cyclopropylethynyl)benzyl)-1-(2-methoxyethyl)-1H-benzo[d]imidazole-6-carboxylic acid]
0.52 nM | 7 mL/min/kg | N#CCC1(Cn2c(Cc3cc(F)c(-c4cccc(OCc5ccc(C#N)cc5F)n4)cc3F)nc3ccc(C(=O)O)nc32)CC1 [Example 273, 2-(4-(6-((4-cyano-2-fluorobenzyl)oxy)pyridin-2-yl)-2,5-difluorobenzyl)-3-((1-(cyanomethyl)cyclopropyl)methyl)-3H-imidazo[4,5-b]pyridine-5-carboxylic acid]

Source: patent US11702404B2, “GLP-1R modulating compounds” (priority 2019, dated 2023)
